Source: patent US5880314A, “Hydrochalcone derivatives, cosmetic compositions containing said derivatives and methods of producing the same” (priority 1995, dated 1999)

Assays:
B16 melanoma cells = assay: Melanoma cell depigmenting test (melanin production); format: cell-based; conditions: 5 days, control as 100%; for activity at 0.01 µg/mL / activity at 0.03 µg/mL / activity at 0.3 µg/mL: Mus musculus, B16, 120 h
Protocol: (Melanoma Cell Depigmenting Test)
Effect of compounds in suppressing melanin pigment synthesis was tested by measuring change in color of B16 melanoma cells when the cells were cultured at a concentration which had no adverse effect on growth of the cells. B16 Melanoma cells (1×10^5) were inoculated on 60 mm petri dishes. After 24 hours, 1,3-bis(2,4-dihydroxyphenyl)propane synthesized in Production Example 3, 1,3-bis(2,4-diacetoxyphenyl)propane synthesized in Production Example 4 and 1,3-bis(2,4-didodecanoyloxyphenyl)propane were added to the each medium, and incubation was curried out for 5 days. After incubation, the cells recovered by trypsin treatment were suspended in 0.3 ml of phosphate buffer and subjected to ultrasonic treatment for cell disruption, 0.3 ml of 4N NaOH was added to the treated suspension and the resultant suspension was incubated at 60° C. for 2 hours. Absorbance was measured at 400 nm and the amount of released melanin was calculated by setting the control as 100%. In Comparative Examples, similar tests were carried out using dihydrophloretin, a hydrochalcone compound, in place of the compounds of the present invention.

synthesis of melanin = conditions: reported in the literature; cited from earlier work
skin = conditions: combined in cosmetics; cited from earlier work

Compound	activity at 0.01 µg/mL (B16 melanoma cells; 0.01 μg/ml) [%]	activity at 0.03 µg/mL (B16 melanoma cells; 0.03 μg/ml) [%]	activity at 0.3 µg/mL (B16 melanoma cells; 0.30 μg/ml) [%]	effect in suppressing the synthesis of melanin (synthesis of melanin)	also measured
Oc1ccc(CCCc2ccc(O)cc2O)c(O)c1 [1,3-bis(2,4-dihydroxyphenyl)propane]	31	10	7		
phlorine				have an effect in suppressing the synthesis of melanin	
Oc1ccc(OCc2ccccc2)cc1 [hydroquinone monobenzyl ether]					lightening of skin darkened with deposited pigment (skin): effectively lightened; side effects (skin): side effects such as skin allergies and irritation
O=C(CCc1ccc(O)cc1)c1c(O)cc(O)cc1O[C@@H]1O[C@H](CO)[C@@H](O)[C@H](O)[C@H]1O [phlorizin]				have an effect in suppressing the synthesis of melanin	
dihydrophloretin				have an effect in suppressing the synthesis of melanin	Melanin production (%) (B16 melanoma cells; 0.01 μg/ml): 92%; Melanin production (%) (B16 melanoma cells; 0.03 μg/ml): 80%; Melanin production (%) (B16 melanoma cells; 0.30 μg/ml): 65%
CCCCCCCCCCCC(=O)Oc1ccc(CCCc2ccc(OC(=O)CCCCCCCCCCC)cc2OC(=O)CCCCCCCCCCC)c(OC(=O)CCCCCCCCCCC)c1 [1,3-bis(2,4-didodecanoyloxyphenyl)propane]	28	9	7		
phlorezin				have an effect in suppressing the synthesis of melanin	
CC(=O)Oc1ccc(CCCc2ccc(OC(C)=O)cc2OC(C)=O)c(OC(C)=O)c1 [1,3-bis(2,4-diacetoxyphenyl)propane]	44	18	11		
